Measured values as given in patent publication US4014909A, “Esters of 21-thiol steroids” (priority 1974, dated 1977).
Like-named read-outs stand apart in the source and are kept apart here.

Key:
thymus = type: in vivo, rat (Wistar, young male)
Experimental: The thymolytic effects have been examined by means of a test, the principle of which is as follows:
The repeated administration of a gluco-corticoid having a systemic activity causes an involution of the defence system of the organism, of which two organs belong to the reticulo-endothelial system, the spleen and the thymus, this latter being the most sensitive to this action, especially with young animals. The thymic involution is estimated by weighing.
The various products were injected daily by the oral or the sub-cutaneous route for four days, to young male rats of Wistar-strain, the initial weight of which was between 45 and 55 grams, distributed at random by groups of ten.
The products under study were administered at a volume of 0.2 ml. per animal for both methods, in suspension in:
Carboxy-methyl-cellulose at 5 % for sub-cutaneous injection;
Gum arabic at 5 % for the oral route.
The animals of the reference groups received the same volume of the corresponding vehicle.
Ninety-six hours after the first administration, the animals were killed, the thymus glands being taken and weighed immediately.
(§1) For each animal, the weight of the thymus has been brought to 100 grams of body weight. The thymolytic activity of the products under study was then expressed as a percentage of regression of the thymus with respect to the animals of the reference group and the ED50 of each product tested was estimated by transferring the percentage inhibition obtained for each dose on semi-logarithmic paper.

granuloma / thymus = assay: Ratio of the local anti-inflammatory activity to the thymolytic activity; type: in vivo, rat (Wistar); settings: for ED50 anti-proliferative activity / ED50 thymolytic activity (sub-cutaneous route): thymolytic activity determined by sub-cutaneous route; for ED50 anti-proliferative activity / ED50 thymolytic activity (oral route): thymolytic activity determined by the oral route
Experimental: The DE50 were calculated by transferring the results on to semi-logarithmic paper.
as §1
The ratio is indicated in Tables VII, VIII and IX which follow: […]

[1] = Action on the hydro-mineral metabolism: sodium excretion, 96 hours treatment; type: in vivo, rat (Wistar, male); settings: for Sodium excreted, average ± standard error: 96 hours treatment, 5 h urine
Source text: The action on the hydro-mineral metabolism was examined by means of a test, the principle of which is as follows:
The gluco-corticoids are not all free from mineral-corticoid effects (for example hydro-cortisone). These latter are indicated by:
A reduced renal elimination of sodium (sodium retention);
a loss of potassium (potassium leakage), these two effects reproducing the action of aldosteron.
This study has been carried out on male Wistar rats having weights between 180 and 190 grams.
The animals were distributed at random in groups of ten.
The products under study were administered by the oral route in suspension in 5 % gum arabic. The animals of the reference group received the same volume of vehicle under the same conditions.
The treatments were carried out daily for 4 days.
The renal functional exploratory test was effected […] after the first administration of the product tested.
Eighteen hours before the test, the animals were completely deprived of food and water, this being subsequently maintained up to the end of the test.
Immediately before the renal functional test, the animals received an overdose by the oral route of physiological solution equal to 5 % by volume of their body weight.
The urine passed during five hours was collected for each animal in a polyethylene tube.
The concentration of sodium was determined in each sample by flame photometry; the total quantitt excreted was then calculated as a function of the corresponding volume of urine. The values obtained for each group were then compared following the Fisher Student method with the quantity of sodium excreted by the animals of the reference group.
The results obtained with hydro-cortisone acetate and the JO 1016 in the case of a treatment lasting 96 hours following the procedure (f) are indicated in the following Table XVI.

[2] = system: liver, kidneys, spleen, thymus, stomach; type: in vivo, rat (Sprague-Dawley); settings: strong dose (436 mg/kg s.c. daily), male rat; study broken off on the 14th day
[3] = Hydro-mineral equilibrium: sodium excretion after 4 weeks treatment; type: in vivo, rat (Sprague-Dawley); settings: male rat, 500 mg/kg s.c.
Experimental: (§2) The action on the endocrine glands and the genital tractus, and a possible ulcerogenic effect were investigated, together with the effects on the glucidic and proteic metabolisms, on the hydro-mineral equilibrium after long-term administration.
(§3) There were utilized groups of 10 male rats and ten female rats of Sprague-Dawley S.P.F. strain which have been given the products under study by sub-cateneous methods daily for four weeks.
(§4) The products were administered in suspension in 5 % carboxy-methyl-cellulose under a volume of 0.5 ml. per 100 grams of body weight, in three different doses, the animals of the reference lot receiving the same volume of the vehicle alone.
(§5) In order to confirm certain previous results of the pharmacological short-term study, there has furthermore been determined, for each lot of animals:
at the end of the treatment:
the sodium excretion in 5 hours
During the course of the long-term study, the JO 1016 was administered daily to the male and female rats in doses of 100 mg/kg, 250 mg/kg, 500 mg/kg by the sub-cutaneous route.

[4] = Action on the protein metabolism: weight increase of immature rats, 96 hours; type: in vivo, rat (Wistar
Source text: The action on the protein metabolism was examined by means of a test, the principle of which is as follows:
The administration of gluco-corticoids results in a disturbance of the protein metabolism, which is shown by an exaggerated protein catabolism resulting in shrinking of the tissues objectified by an inhibition of growth in weight in the young animal and a loss of body weight in the adult animal.
For this study, immature rats of Wistar strain were utilized, the initial weight of which was between 45 and 55 grams, which were distributed at random groups of 10.
The products under study were administered daily for 4 days. The animals were weighed daily during the 4 days of treatment and 24 hours after the last dose.
The products tested were administered either orally or by sub-cutaneous injection, in suspension in 5 % gum arabic for the oral route or in carboxy-methyl-cellulose at 5 % for the sub-cutaneous method, the animals of the reference group receiving the same volume of vehicle by the same method as the corresponding animals treated.
The average variation of the body weight during the 96 hours treatment was calculated for each group of animals.
The increase in weight of immature rats (45 to 55 grams) treated for 96 hours following the procedure (g) by JO 1016, by the oral or the sub-cutaneous routes (average weight at the end of the study, less the average weight at the beginning) are indicated in the following Table XVIII.

[5] = Body weight after long-term sub-cutaneous treatment; type: in vivo, rat (Sprague-Dawley); settings: 4 weeks
Experimental: as §2, §3, §4, §5
The evolution of weight and the consumption of food during the treatment;
During the course of the long-term study, the JO 1016 was administered daily to the male and female rats in doses of 100 mg/kg, 250 mg/kg, 500 mg/kg by the sub-cutaneous route. […]

CC(=O)OCC(=O)[C@@]1(O)CC[C@H]2[C@@H]3CCC4=CC(=O)CC[C@]4(C)[C@H]3[C@@H](O)C[C@@]21C [Hydrocortisone (acetate), Hydrocortisone acetate, reference compound]
ED50 thymolytic activity, sub-cutaneous route (thymus; rat, in vivo, 5760 min): 0.68 mg
ED50 thymolytic activity, oral route (thymus; rat, in vivo, po, 5760 min): 4 mg
ED50 anti-proliferative activity / ED50 thymolytic activity (sub-cutaneous route) (granuloma / thymus): 1.2
ED50 anti-proliferative activity / ED50 thymolytic activity (oral route) (granuloma / thymus): 0.25
Sodium excreted, average ± standard error ([1]; 16 mg/kg oral): 0,371 ± 0,0827 Meq
Mortality [2]: high mortality observed with the strong dose

CC(C)(C)C(=O)SCC(=O)[C@@]1(O)CC[C@H]2[C@@H]3CCC4=CC(=O)CC[C@]4(C)[C@H]3[C@@H](O)C[C@@]21C [JO 1016, Dihydroxy-11β, 17α thio-21 dioxo-3,20 pregnene-4-21 pivalate]
ED50 thymolytic activity, oral route (thymus; oral, total dose administered during four days per rat of about 50 g): 400 mg
ED50 thymolytic activity, sub-cutaneous route (thymus; sub-cutaneous, total dose administered during four days per rat of about 50 g): > 120 mg
ED50 anti-proliferative activity / ED50 thymolytic activity (sub-cutaneous route) (granuloma / thymus): 0.0008
ED50 anti-proliferative activity / ED50 thymolytic activity (oral route) (granuloma / thymus): < 0.003
Sodium excreted, average ± standard error ([1]; 16 mg/kg oral): 0.820 ± 0.1040 Meq
Sodium excreted, percentage of variation ([1]; 16 mg/kg oral, 96 hours, hydrocortisone acetate 0,001 < p < 0,01, JO 1016 N.S.): 0,4%
Sodium excreted, average ± standard error ([1]; 32 mg/kg oral): 0.754 ± 0.0465 Meq
Sodium excreted, average ± standard error ([1]; 80 mg/kg oral): 0.684 ± 0.1591 Meq
Sodium excreted, average ± standard error ([1]; 160 mg/kg oral): 0.664 ± 0.0484 Meq
Sodium excreted, average ± standard error [3]: 1,41 ± 0,116 Meq
Increase in weight of immature rats ([4]; 1 mg/rat/day, sub-cutaneous route): 17 g
Increase in weight of immature rats ([4]; 3 mg/rat/day, oral route): 14 g
Increase in weight of immature rats ([4]; 10 mg/rat/day (last line of Table XVIII (so in the source)), oral route): 8 g
Increase in weight of immature rats ([4]; 10 mg/rat/day, oral route): 11 g
Increase in weight of immature rats ([4]; 10 mg/rat/day, sub-cutaneous route): 16 g
Increase in weight of immature rats ([4]; 30 mg/rat/day, oral route): 13 g
Increase in weight of immature rats ([4]; 30 mg/rat/day, sub-cutaneous route): 16 g
Body weight, average ± standard error ([5]; female rats, 100 mg/kg s.c.): 219 ± 3.06 g
Body weight, percentages of variation and probabilities ([5]; female rats, 100 mg/kg s.c.): N.S.
Body weight, average ± standard error ([5]; female rats, 250 mg/kg s.c.): 216 ± 3.18 g
Body weight, percentages of variation and probabilities ([5]; female rats, 250 mg/kg s.c.): N.S.
Body weight, average ± standard error ([5]; female rats, 500 mg/kg s.c.): 198 ± 4.85 g
Body weight, average ± standard error ([5]; male rats, 100 mg/kg s.c.): 299 ± 45.2 g
Body weight, percentages of variation and probabilities ([5]; male rats, 100 mg/kg s.c.): N.S.
Body weight, average ± standard error ([5]; male rats, 250 mg/kg s.c.): 289 ± 7.7 g
Body weight, percentages of variation and probabilities ([5]; male rats, 250 mg/kg s.c.): N.S.
Body weight, average ± standard error ([5]; male rats, 500 mg/kg s.c.): 274 ± 2,5 g
